Patent publication US8058243B2, “Method for treating a brain cancer with ifenprodil” (HSC Research and Development Limited Partnership, priority 2006, dated 2011)
Where a name gives a salt, the structure may show the parent alone. Read-outs that look alike come from different tables or passages of the source.

Test system: murine neural precursor cells (neurosphere cultures)
Experiment: HTS of LOPAC library against secondary neurosphere cultures, MTT proliferation assay at 3 μM, day 7 (z score, P value)
Type: cell-based, mouse
[1] = LOPAC primary screen, neurosphere MTT proliferation, 3 μM, day 7
[2] = yes/no: significantly inhibited neurosphere proliferation (P<0.01) in the primary screen
[3] = LOPAC library screen, 3 μM, MTT, secondary neurosphere cultures, day 7
[4] = yes = significantly inhibited neurosphere proliferation (P<0.01) in the primary screen
[5] = LOPAC library screen, 3 μM, MTT, neurosphere cultures
[6] = LOPAC screen, neurosphere MTT proliferation, 3 μM, day 7
[7] = yes/no: significantly inhibited neurosphere proliferation (P<0.01) in primary screen
[8] = yes/no: significantly inhibited neurosphere proliferation in the primary screen
[9] = primary LOPAC screen, 3 μM, MTT, neurosphere proliferation
[10] = yes/no: significantly inhibited neurosphere proliferation in primary screen

C=CCN1CC[C@]23c4c5ccc(O)c4O[C@H]2/C(=N/NC(=O)c2ccccc2)CC[C@@]3(O)[C@H]1C5 [Naloxone benzoylhydrazone]
Z Score: 1.915 | Z score [1]: 1.915 | Activity [2]: no

C/C=C(/C)C(=O)O[C@H]1C(C)=C2[C@H]([C@@H]1OC(=O)CCCCCCC)[C@@](C)(OC(C)=O)C[C@H](OC(=O)CCC)[C@@]1(O)[C@H]2OC(=O)[C@@]1(C)O [Thapsigargin]
Z Score [3]: −9.559 | Z score [1]: −9.559 | Activity [4]: yes

CNCCCN1c2ccccc2CCc2ccccc21 [Desipramine hydrochloride]
Z Score [5]: 0.1226 | Z score [6]: 0.123 | Activity [7]: no

Cc1scc2c1N(C(=O)CN1CCN(C)CC1)c1ccccc1NC2=O [Telenzepine dihydrochloride]
Z Score (168 h, 3 µM): 0.3813 | Z score (168 h, 3 µM): 0.381 | Activity [8]: no

COc1ccccc1N1CCN(CCCCNC(=O)c2ccc3ccccc3c2)CC1 [BP 897]
Z Score (168 h, 3 µM): −1.715 | Z score (168 h, 3 µM): −1.715 | Activity [7]: no

(+)-Catechin Hydrate
Z Score [5]: 0.5105 | Z score [9]: 0.511 | Activity [8]: no

N#C/C(=C\c1ccc(O)c(O)c1)C(=O)c1ccc(O)c(O)c1 [Tyrphostin AG 538]
Z Score: −0.3955 | Z score [9]: −0.395 | Activity [8]: no

CSc1ccc2c(c1)N(CCC1CCCCN1C)c1ccccc1S2 (stereo not shown) [Thioridazine hydrochloride]
Z Score (168 h, 3 µM): 0.2356 | Z score (168 h, 3 µM): 0.236 | Activity [2]: no

C[C@@H]1O[C@@H](O[C@H]2C[C@@H](O)[C@]3(CO)[C@H]4[C@H](O)C[C@]5(C)[C@@H](C6=CC(=O)OC6)CC[C@]5(O)[C@@H]4CC[C@]3(O)C2)[C@H](O)[C@H](O)[C@H]1O [Ouabain]
Z Score [3]: −1.568 | Z score [1]: −1.568 | Activity [10]: no

CN(N=O)c1cc(O)ccc1O [Dephostatin]
Z Score: 0.6209 | Z score [6]: 0.621 | Activity [7]: no

CC(C)(C)C1(O)CCN2CC3c4ccccc4CCc4cccc(c43)C2C1.Cl (single isomer, unassigned; (+)) [(+)-Butaclamol hydrochloride]
Z Score [3]: −11.27 | Z score [1]: −11.274 | Activity [2]: yes

NCCCCNS(=O)(=O)c1ccc2c(Cl)cccc2c1 [N-(4-Aminobutyl)-5-chloro-2-naphthalenesulfonamide]
Z score (168 h, 3 µM): −0.923 | Activity [10]: no

CCN(CC)C(C)C(=O)N1c2ccccc2Sc2ccccc21.Cl (stereo not drawn) [10-(alpha-Diethylaminopropionyl)-phenothiazine hydrochloride]
Z Score: −1.545

CCN(CC)C(=O)N[C@H]1C[C@@H]2c3cccc4[nH]cc(c34)C[C@H]2N(C)C1 [R(+)-Terguride]
Z Score [3]: −2.004 | Z score [9]: −2.004 | Activity [8]: no

Cc1nc2c([nH]1)c(=O)n(C)c(=O)n2Cc1ccco1 [Furafylline]
Z Score [5]: 1.025 | Z score [1]: 1.025 | Activity [7]: no

Nc1ccc(CCNc2ncnc3c2ncn3[C@@H]2O[C@H](CO)[C@@H](O)[C@H]2O)cc1 [N6-2-(4-Aminophenyl)ethyladenosine]
Z Score (168 h, 3 µM): −1.323 | Z score (168 h, 3 µM): −1.323 | Activity [8]: no

C#CCN1C(C)=C(C(=O)OC)C(c2cccc([N+](=O)[O-])c2)C(C(=O)OCC)=C1C (stereo not shown) [MRS 1845]
Activity: no | Z Score: −0.006196 | Z score [1]: −0.006

O=C1Cc2c([nH]c3ccc(Br)cc23)-c2ccccc2N1 [Kenpaullone]
Z Score (168 h, 3 µM): −1.555 | Z score (168 h, 3 µM): −1.555 | Activity [7]: no

S-(−)-Eticlopride hydrochloride
Z Score: −5.158

S=C(Nc1ccccc1)Nc1nccs1 [1-Phenyl-3-(2-thiazolyl)-2-thiourea]
Z Score (168 h, 3 µM): 1.208 | Z score (168 h, 3 µM): 1.208 | Activity [10]: no

O=C(O)c1cc(O)c2ccc(Cl)cc2n1 [7-Chlorokynurenic acid]
Z Score: 1.241 | Z score [6]: 1.241 | Activity [7]: no

CN1CCC[C@@H]1CCO[C@](C)(c1ccccc1)c1ccc(Cl)cc1 [Clemastine fumarate]
Z Score (168 h, 3 µM): −2.023 | Z score (168 h, 3 µM): −2.023

CCCCOC(=O)NS(=O)(=O)c1sc(CC(C)C)cc1-c1ccc(Cn2c(CC)nc3c(C)cc(C)nc32)cc1 [L-162,313]
Z Score: 0.7923 | Z score [1]: 0.792 | Activity [7]: no

COc1ccccc1N1CCNCC1.Cl [1-(2-Methoxyphenyl)piperazine hydrochloride]
Z Score: −0.6388 | Z score [1]: −0.639 | Activity [10]: no

(−)-Perillic acid
Z Score: −1.321

CCC(C)N(C)C(=O)c1cc2ccccc2c(-c2ccccc2Cl)n1 (stereo not shown) [PK 11195]
Z Score (168 h, 3 µM): −0.4676 | Z score (168 h, 3 µM): −0.468 | Activity [7]: no

C/C(O)=C(\C#N)C(=O)Nc1cc(Br)ccc1Br [LFM-A13]
Z Score: 4.5 | Z score [1]: 4.500 | Activity [7]: no

CCC1(c2ccc(N)cc2)CCC(=O)NC1=O (stereo not shown) [(B1)-p-Aminoglutethimide]
Z Score: −0.4441

COc1ccc(/C=C/C(=O)Nc2ccccc2C(=O)O)cc1OC [Tranilast]
Z Score [5]: 0.1736 | Z score [9]: 0.174

COc1ccc2c(c1OC)C(=O)OC2C1c2cc3c(cc2CCN1C)OCO3 (single isomer, unassigned; (+)) [(+)-Hydrastine]
Z Score: −0.8362 | Z score [1]: −0.836 | Activity [2]: no

C[C@]12CC[C@@H](O)C[C@@H]1CC[C@@H]1[C@@H]2CC[C@]2(C)[C@@H](O)CC[C@@H]12 [5alpha-Androstane-3alpha,17beta-diol]
Z score [9]: −0.381 | Activity [8]: no

CN(C)CC/C=C1/c2ccccc2Sc2ccc(Cl)cc21 [Chlorprothixene hydrochloride]
Z Score (168 h, 3 µM): −5.008 | Z score (168 h, 3 µM): −5.008 | Activity [2]: yes

COc1cc2c(CCNC(C)=O)c[nH]c2cc1Cl [6-Chloromelatonin]
Z Score [3]: −1.659 | Z score [6]: −1.659 | Activity [7]: no

COc1ccc2[nH]c(I)c(CCNC(C)=O)c2c1 [2-Iodomelatonin]
Z Score: −0.1348 | Z score [1]: −0.135 | Activity [7]: no

SKF 83565 hydrobromide
Activity [10]: no

O=C(O)CN(CCOCCOCCN(CC(=O)O)CC(=O)O)CC(=O)O
Activity: no | Z Score: 1.507 | Z score: 1.507

Oc1cccc2c(O)nccc12 [1,5-Isoquinolinediol]
Z Score [5]: 0.02674 | Z score [1]: 0.027 | Activity [7]: no

c1ccc(-c2ccccn2)nc1 [2,2′-Bipyridyl]
Z Score: 1.455 | Z score [6]: 1.455 | Activity [7]: no

O=C(c1ccc(OCCN2CCCCC2)cc1)c1c(-c2ccc(O)cc2)sc2cc(O)ccc12 [Raloxifene hydrochloride]
Z Score [3]: −9.222 | Z score [1]: −9.222 | Activity [4]: yes

CC1CNCCN1S(=O)(=O)c1cccc2cnccc12.Cl.Cl (stereo not shown) [1-(5-Isoquinolinylsulfonyl)-2-methylpiperazine dihydrochloride]
Z Score (168 h, 3 µM): 0.3352 | Z score (168 h, 3 µM): 0.335 | Activity [7]: no

Cl.c1ccc2nc(C3=NCCN3)ccc2c1 [BU224 hydrochloride]
Z Score: 0.4045 | Z score [6]: 0.404 | Activity [7]: no

CNC[C@H](O)c1cccc(O)c1 [Phenylephrine hydrochloride]
Activity: no | Z Score [3]: −1.257 | Z score [1]: −1.257

Cl.NCC(O)c1ccc(O)cc1 (stereo not shown) [(B1)-Octopamine hydrochloride]
Z Score: −1.567

N=C(N)c1ccc(OCCCCCOc2ccc(C(=N)N)cc2)cc1 [Pentamidine (32), Pentamidine, reference compound]
Activity: yes | Z Score [3]: −11.27 | Z score [1]: −11.274

Cl.N=C(N)c1ccccc1 [Benzamidine hydrochloride]
Activity: no | Z Score: 1.509 | Z score: 1.509

Cc1nnc(SCC2=C(C(=O)O)N3C(=O)[C@@H](NC(=O)Cn4cnnn4)[C@H]3SC2)s1 [Cefazolin sodium]
Z Score [3]: −2.58 | Z score [1]: −2.580 | Activity [2]: yes

Cl.c1ccc2sc(C3(N4CCCCC4)CCCCC3)cc2c1 [BTCP hydrochloride]
Z Score: 0.8361 | Z score [1]: 0.836 | Activity [4]: no

C=C[C@@]1(C)CC(=O)[C@]2(O)[C@@]3(C)[C@@H](O)CCC(C)(C)[C@@H]3[C@H](O)[C@H](OC(C)=O)[C@@]2(C)O1 [Forskolin]
Z Score [3]: −1.331 | Z score [1]: −1.331

CC(C(=O)O)c1cccc(C(=O)c2ccccc2)c1 (stereo not shown) [Ketoprofen]
Activity: no | Z Score (LOPAC library screen at 3 μM, secondary neurosphere cultures, MTT): −1.164 | Z score [1]: −1.164

COC1=C(OC)C(=O)c2ccccc2C1=O [2,3-Dimethoxy-1,4-naphthoquinone]
Z Score: −10.4 | Z score [1]: −10.398 | Activity [2]: yes

CCCCc1oc2ccccc2c1C(=O)c1cc(I)c(OCCN(CC)CC)c(I)c1 [Amiodarone hydrochloride]
Z Score [5]: 0.9292 | Z score [9]: 0.929 | Activity [8]: no

CN(C)C(=O)N=NC(=O)N(C)C [N,N,N′,N′-Tetramethylazodicarboxamide]
Z Score (168 h, 3 µM): −0.6393 | Z score (168 h, 3 µM): −0.639 | Activity [7]: no

CC#C[C@]1(O)CC[C@H]2[C@@H]3CCC4=CC(=O)CCC4=C3[C@@H](c3ccc(N(C)C)cc3)C[C@@]21C [Mifepristone]
Z Score (168 h, 3 µM): −1.97 | Z score (168 h, 3 µM): −1.970 | Activity [4]: no

CCCCCCCCCC[Si](C)(C)CCC(=O)NC(Cc1ccc(C)cc1)c1ccccc1 (stereo not shown) [Sandoz 58-035]
Z Score [5]: 0.3325 | Z score [9]: 0.332 | Activity [8]: no
